From patent US20260242440A1, “NOVEL MEANS TO MODULATE NMDA RECEPTOR-MEDIATED TOXICITY” (FUNDAMENTAL PHARMA GMBH, priority 2018, published 2026) come the findings set out here.

“Also recorded” adds a separate entry of the source.

One test relates to synaptic NMDA receptor. In words: Gabazine induced calcium influx into mitochondria (synaptic NMDA receptor signalling). Type of test: cell-based, mouse. Particulars: primary cultured neurons, polypeptides expressed via rAAV. As for the experimental part: Gabazine induced mitochondrial Ca^2+ response in primary cultured neurons is recorded and analysed as described in a previous study (Qiu et al, Nat Commun. 2013; 4:2034, incorporated herewith by reference) using a FRET calcium indicator 4mtD3cpv that specifically located to mitochondria. Briefly, mitochondrial Ca^2+ levels were detected with FRET-based and mitochondrial targeted Ca^2+ indicator 4mtD3cpv. 4mtD3cpv were excited at 430±12 nm (CFP) and 500±10 nm (YFP), and emission of CFP (470±12 nm) and YFP (535±15 nm) were separated and filtered using a DualView beam splitter (AHF Analysentechnik and MAG Biosystems), and all fluorescence images were recorded through a 20× water-immersion objective at 1 Hz.
In a further experiment the inventors assessed the impact of the polypeptide comprising the sequence of SEQ ID NO:5 and SEQ ID NO: 54, respectively, on Gabazine induced calcium influx (mitochondria), a measure of synaptic NMDA receptor signalling. The experiment was carried out in primary cultured neurons as described above.

The test system of test [1] is primary mouse hippocampal neurons. In words: NMDA receptor induced mitochondrial membrane potential breakdown (Rh123 imaging). Type of test: cell-based. As for the experimental part:
Coverslips with primary cultured neurons (DIV15-DIV17) were used to examine mitochondrial membrane potential (Ψm) and mitochondrial calcium signalling, which was performed at room temperature in CO2-independent culture medium (CICM) containing: 10 mM HEPES, 140 mM NaCl, 2.5 mM KCl, 1.0 mM MgCl2, 2.0 mM CaCl2, 1.0 mM Glycine, 35.6 mM Glucose and 0.5 mM Na-pyruvate. All images were obtained by a cooled-CCD camera (iXon 887, Andor) on an upright microscope (BX51WI, Olympus). Fluorescence excitation was provided by a xenon arc lamp in combination with an excitation filter wheel (MT-20, Olympus). Data were collected using Cell^R software (Olympus), analysed using ImageJ and quantified using Igor Pro (WaveMetrics). Ψm was detected with the small molecule fluorescence indicator Rhodamine 123 (Rh123; Molecular Probe™, R302). Primary cultured neurons were loaded with 4.3 μM Rh123 in CICM at 37° C. for 30 min, then washed and left in CICM for another 30 min before recording. At the end of each experiment, the mitochondrial uncoupler FCCP (5 μM, Sigma-Aldrich, Cat #C2920) was applied to the cells to reach the maximal Rh123 fluorescence intensity. Rh123 was imaged with 470±20 nm excitation and 525±25 nm emission wavelengths using a 20× objective. Rh123 fluorescence intensity was measured in the nucleus to minimize contamination from cytosolic mitochondrial signal and Rh123 fluorescence intensity was normalized to the maximum FCCP signal for each region of interest.
Mitochondrial dysfunction is a hallmark of NMDA receptor excitotoxicity and an early event en-route to neuronal death. A parameter that is often used to assess mitochondrial integrity is the mitochondrial membrane potential. A breakdown of the mitochondrial membrane potential can be observed after exposure of hippocampal or cortical neurons to NMDA and indicates excitotoxicity-associated mitochondrial dysfunction. Therefore, the inventors investigated the effect of polypeptides comprising the sequence of SEQ ID NO:5 or SEQ ID NO: 54 as well as of the control TRMP5 sequence (SEQ ID NO: 55) on mitochondrial membrane potential break down in primary mouse hippocampal neurons. Excitotoxicity leading to mitochondrial membrane potential break down was induced with bath application of 20 μM NMDA. After 11 minutes, the mitochondrial uncoupler, carbonylcyanide-p-trifluoromethoxyphenylhydrazone (FCCP) was added. Addition of FCCP leads to break-down of the mitochondrial membrane potential and served as a control of the test system.

The test system is the same in test [2]. In words: NMDA induced cell death (excitotoxicity) in cultured primary neurons. Type of test: cell-based. Particulars: polypeptide expressed via rAAV infection on DIV3; NMDA 20 μM for 10 min; cell death assessed 24 h later. The procedure:
Primary mouse hippocampal and cortical neurons were prepared and maintained as known. Briefly, hippocampi or cerebral cortex from P0 C57Bl/6NCrl mice were dissociated and plated at a density of 1.2*105/cm^2 in Growth Medium (GM), consisting of Neurobasal A medium (Gibco™, 10888022), 2% serum free B27™ Supplement (Gibco™, 17504044), 1% rat serum (Biowest, S2150), 0.5 mM L-Glutamine (Sigma, G7513) and 0.5% P-S. Cytosine β-D-arabinofuranoside (AraC; Sigma, C1768; 2.8 μM) was added on DIV3 to prevent the proliferation of glial cells. From DIV8, half of the medium was replaced by GM without Rat serum every 48 h until being used for experiments. 24 h before experiments, GM was replaced with transfection medium (10 mM HEPES, pH 7.4, 114 mM NaCl, 26.1 mM NaHCO3, 5.3 mM KCl, 1 mM MgCl2, 2 mM CaCl2, 30 mM glucose, 1 mM glycine, 0.5 mM C3H3NaO3, and 0.001% phenol red and 10% of phosphate-free Eagle's minimum essential medium, supplemented with 7.5 µg/ml insulin, 7.5 µg/ml transferrin and 7.5 ng/ml sodium selenite (ITS Liquid Media Supplement, Sigma-Aldrich Cat #I3146)). Primary hippocampal neurons were used in live cell imaging, cell death experiments, while cortical neurons were used for mRNA and protein extraction analysis.
All viral particles were produced and purified as known in the art. All TRPM4 derived peptides (comprising SEQ ID NO:5, or any of SEQ ID NO:46 to SEQ ID NO:56) were cloned into rAAV backbone by PCR. shRNA against mouse TRPM4 were designed by BLOCK-iT™ RNAi Designer from Thermofisher to target: […] (SEQ ID NO:44, shTRPM4-1) and […] (SEQ ID NO:45, shTRPM4-2). Scramble shRNA (shSCR) has been tested and proven to have no known targets in mice. GPI anchor ([…], e.g. used in SEQ ID NO:53) sequences were synthesized by Eurofins Genomics (Ebersberg, Germany). All primers were synthesized and all plasmids were confirmed by sequencing by Eurofins Genomics.
In order to investigate the role of TRPM4 in NMDA receptor mediated excitotoxicity, the inventors used RNA interference strategies to knock down TRPM4. Cultured primary mouse hippocampus neurons were infected on day 3 in vitro (DIV3) with recombinant adeno-associated viruses (rAAVs) providing for expression of a scramble control (shSCR), shTRPM4-1 (SEQ ID NO:44) or shTRPM4-2 (SEQ ID NO:45). On DIV15-16, neurons were challenged with N-methyl-D-aspartate (NMDA, 20 μM) for 10 min. After NMDA wash out, neurons were kept in the culture medium for another 24 h before analysis. […] Evidently, TRPM4 is thus involved in the process of NMDA receptor mediated excitotoxicity.
In a next step, the inventors tried to identify regions in the mouse TRPM4 protein potentially involved in NMDA receptor mediated excitotoxicity. For this purpose, polypeptide fragments of mouse TRPM4 protein were generated and their impact on NMDA induced excitotoxicity analysed. To do so, primary neuron cultures were infected with respective rAAVs on DIV3, challenged with NMDA (20 μM) for 10 min on DIV17 and cell death assessed 24 hours later.
The sequence of SEQ ID NO:5 in TRPM4 is located in vivo just beneath the plasma membrane. […] To test this hypothesis, the inventors created a fusion protein comprising SEQ ID NO:5 and a GPI anchor, SEQ ID NO:57. The sequence of the fusion is given in SEQ ID NO:53. Neurons infected with rAAV and expressing SEQ ID NO:47 (control) or SEQ ID NO:53 were exposed to NMDA (20 μM) for 10 min on DIV15-16, with cell death assessed after 24 h.
In a next step, the inventors created a mutant of SEQ ID NO:5, in which two adjacent phenylalanine residues where substituted by tyrosine residues (SEQ ID NO: 54). […] TRPM5 is a protein related to but nonetheless distinct to TRPM4. The region in TRPM5 corresponding to SEQ ID NO:5, SEQ ID NO:55, shares only about 60% sequence identity with SEQ ID NO:5. Neurons were infected on DIV3 with rAAVs expressing SEQ ID NO: 5, SEQ ID NO: 54 or SEQ ID NO:55 and exposed to NMDA (20 μM) for 10 min on DIV17, with cell death assessed 24 h later. […]

A further test deals with T1, TRPM4 channel (Homo sapiens, UniProt Q8TD43).
T1 construct: PC3 cells are known to express TRPM4 channels; endogenous in cells; host or cells: PC3 prostate cancer cell line
Briefly: TRPM4 channel function, whole-cell patch clamp in PC3 cells. Type of test: cell-based. The following applies: 10 μM compound, pre-incubated 30-60 min. An excerpt:
To assess any direct impact of compound P4 and compound P15 on TRPM4 channel function independent of NMDA receptors, the inventors used the prostate cancer cell line PC3 and patch clamp recordings. PC3 cells are known to express TRPM4 channels (C. Holzmann et al., Oncotarget. 6, 41783-93 (2015)). TRPM4 currents in turn are characterized by their calcium dependence and outward rectification (P. Launay et al., Cell. 109, 397-407 (2002)). Briefly, whole-cell patch clamp recordings were made from PC3 cells plated on 12 mm round coverslips secured with a platinum ring in a recording chamber (OAC-1, Science Products GmbH) mounted on a fixed-stage upright microscope (BX51WI, Olympus). […] Patch electrodes (3-4 MΩ) were made from 1.5 mm borosilicate glass and filled with cesium-based solutions (in mM: CsCl, 145; NaCl, 8; HEPES, 10; MgCl2, 1; plus either EGTA, 0.2 for a free Ca^2+ concentration of zero; or EGTA, 10 and CaCl2), 9.4 for a calculated free Ca^2+ concentration of 10 μM; Maxchelator, Stanford University). Recordings were made with a Multiclamp 700B amplifier, digitized through a Digidata 1550B and acquired and analyzed using pClamp 10 software (Molecular Devices). Access resistance (range: 10-20 MΩ) was monitored regularly during voltage clamp recordings and data was rejected if changes greater than 20% occurred.
Background: The patch-clamp technique gives a direct electrical read-out from membranes.

For the next test, the system named is NMDA receptor. Briefly: NMDA-induced calcium transients (Fura2 calcium imaging). Type of test: cell-based, mouse. Particulars: hippocampal neurons, 6 min NMDA (20 μM) application. The procedure: In a further experiment, the impact of P4 and P15 on NMDA-induced calcium transients was assessed. Briefly, for calcium imaging, primary hippocampal neurons on coverslips were loaded with the cell-permeable, high-affinity ratiometric calcium indicator Fura2-AM (Invitrogen™ F1221), at 1 μM in CO2-independent culture medium (CICM; CICM contains: 10 mM HEPES, 140 mM NaCl, 2.5 mM KCl, 1.0 mM MgCl2, 2.0 mM CaCl2, 1.0 mM Glycine, 35.6 mM Glucose and 0.5 mM Na-pyruvate) for 30 min at 37° C., then washed and left in CICM for another 30 min to allow for de-esterification. Fura2 was excited at 340/11 nm and 380/11 nm, and fluorescence emission was obtained from a 40× UV compatible objective (LUMPLFLN, Olympus) through a 510/20 nm emission filter. For quantification, ImageJ was used to calculate average background-subtracted fluorescence intensities for 340 and 380 nm excitation (F340 and F380) from each neuron. Intracellular calcium levels were plotted as F340/F380 ratios over time, from which the NMDA response amplitude and area under the curve (AUC) was calculated to quantify NMDA-induced calcium influx.

The next test concerns HEK293 cells. In words: Luminescent cytotoxicity assay, HEK293 cells transfected with GRIN1 and GRIN2A or GRIN2B. Type of test: cell-based, human. Particulars: compound added 6 h after transfection; cell death 48 h after transfection. The procedure: HEK293 cells were cultured in Dulbecco's Modified Eagle Medium (DMEM, Gibco™ 41965-039) supplement with 10% Fetal Bovine Serum (FBS, Gibco™, 10270), 1% Sodium Pyruvate (Gibco™, 11360070), 1% MEM NEAA (GibcoT^M, 11140035) and 0.5% Penicillin-Streptomycin (P-S; Sigma, P0781) and Passagel5-25 were used for experiments.
To test the cytotoxicity of compounds according to the present invention, HEK293 cells (70-80% confluent) were transfected 24 hours after plating with both GRIN1 and GRIN2 Å or GRIN2B, respectively (1:[…]) with Lipofectamine 2000 according to manufacturer's instructions. The relative number of dead cells in the population at the indicated time points after transfection was measured with the CytoTox-Glo™ Cytotoxicity assay (Promega, G9290) according to manufacturer's instruction with minor modification. Briefly, 10% of total medium were mixed with 10 μL AAF-amino luciferin to reach a final volume at 200 μL with water, the dead cell relative luminescence units (DRLU) was measured by GloMax (Promega) in a 96 well white bottom polystyrene microplate (Corning Costar®, 3912). After all the measurements, lysis reagents have been added to the cells and 10% of lysate was used for the total cell relative luminescence units (TRLU) measurement. Cell death was calculated by the following equations: […]
For drug testing, P4, P8, P9, P13 and P15 were added to the medium at indicated concentration 6 h after transfection. DRLU, TRLU and cell death were measured and calculated 48 h after transfection.

T1 sequence (Q8TD43 whole entry): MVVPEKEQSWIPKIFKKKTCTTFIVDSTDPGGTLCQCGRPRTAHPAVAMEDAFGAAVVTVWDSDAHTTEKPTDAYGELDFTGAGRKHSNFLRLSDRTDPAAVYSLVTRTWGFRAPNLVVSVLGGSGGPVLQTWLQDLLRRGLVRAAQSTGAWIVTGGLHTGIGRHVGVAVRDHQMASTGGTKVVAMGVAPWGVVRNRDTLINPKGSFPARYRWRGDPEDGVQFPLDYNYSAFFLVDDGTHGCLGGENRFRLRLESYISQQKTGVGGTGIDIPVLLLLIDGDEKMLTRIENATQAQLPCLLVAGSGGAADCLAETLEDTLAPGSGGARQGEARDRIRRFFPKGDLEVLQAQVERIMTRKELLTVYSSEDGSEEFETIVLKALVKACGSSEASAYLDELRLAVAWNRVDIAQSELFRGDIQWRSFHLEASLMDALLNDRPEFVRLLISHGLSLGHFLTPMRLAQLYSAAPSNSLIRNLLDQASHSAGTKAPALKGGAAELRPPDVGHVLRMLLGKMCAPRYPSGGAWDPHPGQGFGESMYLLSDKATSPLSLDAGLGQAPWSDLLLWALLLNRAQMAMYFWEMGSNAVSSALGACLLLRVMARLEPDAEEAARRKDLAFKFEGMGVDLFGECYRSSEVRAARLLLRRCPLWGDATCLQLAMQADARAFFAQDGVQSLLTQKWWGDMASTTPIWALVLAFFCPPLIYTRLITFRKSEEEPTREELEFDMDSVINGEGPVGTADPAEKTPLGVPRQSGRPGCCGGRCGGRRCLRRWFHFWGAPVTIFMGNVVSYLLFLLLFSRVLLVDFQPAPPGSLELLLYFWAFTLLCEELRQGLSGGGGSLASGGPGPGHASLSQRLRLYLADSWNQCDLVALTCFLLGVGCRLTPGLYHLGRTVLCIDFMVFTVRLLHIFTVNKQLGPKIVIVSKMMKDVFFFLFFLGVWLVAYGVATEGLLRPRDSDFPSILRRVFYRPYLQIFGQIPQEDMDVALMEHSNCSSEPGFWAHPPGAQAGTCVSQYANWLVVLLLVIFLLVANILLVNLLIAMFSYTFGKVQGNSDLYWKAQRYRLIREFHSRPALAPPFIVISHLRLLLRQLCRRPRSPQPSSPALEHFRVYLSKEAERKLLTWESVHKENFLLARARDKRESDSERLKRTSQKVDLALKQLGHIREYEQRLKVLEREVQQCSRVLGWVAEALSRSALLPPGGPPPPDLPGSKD

Consider “SEQ ID NO:54: derivative of SEQ ID NO:5, having a conservative substitution of two Y for two F (NSEERAARLLLRRCPLWGEATCLQLAMQADARAYYAQDGVQSLLTQKWWGEMDSTTP; Mutant of SEQ ID NO:5 with F34Y and F35Y)”, for which the “Gabazine induced calcium influx into mitochondria” value in the test on synaptic NMDA receptor is on record as “neither of these polypeptides affects synaptic NMDA receptor signalling; also recorded: not affected”. Moreover, the “NMDA receptor induced mitochondrial membrane potential breakdown” value in test [1] (polypeptides expressed via rAAV, bath application of 20 μM NMDA) is on record as “capable of preventing NMDA receptor induced mitochondrial membrane potential breakdown”. For the same compound, the “protection against NMDA induced cell death (neuroprotective effect)” value in test [2] was “only slightly less effective in reducing NMDA receptor-mediated cell toxicity than SEQ ID NO:5”.
Take `NCC1CCN(CC(=O)Nc2cc(Cl)c(Cl)cc2Cl)C1` (stereo not shown) [P15]: on TRPM4 channel, the “TRPM4-like outwardly rectifying current activated by 10 μM Ca2+” value is listed as “not affected”. Also, the NMDA-induced calcium transients result with NMDA receptor is reported as “neither compound P4 nor compound P15 reduced; also recorded: neither compound P4 nor P15 reduced”. Also, in test [1] (compound applied 30 min prior to recording, bath application of NMDA), the “protection of mitochondrial membrane potential from NMDA excitotoxicity” value is “significantly protect mitochondrial membrane potential from NMDA excitotoxicity”. In addition, the “NMDA receptor induced cell death” value in the test on HEK293 cells is “reduced the level of NMDA receptor induced cell death”.
